In patent US8716284B2, “Adamantyl diamide derivatives and uses of same” (H. Lundbeck A/S, priority 2008, dated 2014):

How the values were obtained:
mGluR5 = mGluR5 (Homo sapiens, UniProt P41594); assay: Radioligand binding assay, [3H]MPEP filtration binding to membrane homogenates; conditions: 5 nM [3H]MPEP; Ki calculated from IC50 by Cheng-Prusoff
Method: Binding assays were performed as described in [J. A. O'Brien et al. Mol. Pharmacol., 2003, 64, 731-740] with slight modifications. Briefly, after thawing, the membrane homogenates were resuspended in 50 mM Tris-HCl, 0.9% NaCl binding buffer at pH 7.4 to a final assay concentration of 40 μg protein/well for [^3H]methoxy-5-(2-pyridinylethynyl)pyridine ([^3H] MPEP) (American Radiolabeled Chemicals, Inc., St. Louis, Mo.) filtration binding. Incubations included 5 nM [^3H] MPEP, membranes and either buffer or varying concentrations of compound. Samples were incubated for 60 min at room temperature with shaking. Non-specific binding was defined with 10 μM MPEP. After incubation, samples were filtered over a GF/C filter (presoaked in 0.25% polyethyleneimine (PEI)) and then washed 4 times using a Tomtec® Harvester 96® Mach III cell harvester (Tomtec, Hamden, Conn.) with 0.5 mL ice-cold 50 mM Tris-HCl (pH 7.4).
IC50 values were derived from the inhibition curve and Ki values were calculated according to the Cheng and Prusoff equation of Ki=IC50/(1+[L]/Kd) described in [Y. Cheng and W. H. Prusoff Biochem. Pharmacol. 1973, 22, 3099-3108] where [L] is the concentration of radioligand and Kd is its dissociation constant at the receptor, derived from the saturation isotherm.

[1] = target: T1, rat metabotropic glutamate receptor 5 (mGluR5) (Rattus norvegicus, UniProt P31424); assay: Calcium mobilization assay (FLIPR) for negative or positive allosteric activity, HEK 293 cells; type: cell-based; conditions: HEK293, negative allosteric modulation, inhibition of EC80 glutamate response; read-out: FLIPR maximum inhibition
T1 construct: expressed in transfected cells; host or cells: HEK 293
Outline: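 HEK 293 cells stably expressing rat mGluR5, Fluo-4 loaded in HEPES-buffered HBSS pH 7.4 with 0.1% BSA and probenecid. Compound added with EC20 (potentiation) or EC80 (inhibition) glutamate; fluorescence read over 3 min at room temperature. Basal-subtracted maximum fluorescence change fitted to Hill equation.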

adult, male CD1 mice = assay: Mouse marble burying (mMB) assay, anxiolytic effect; type: in vivo; conditions: SC injection, one-way ANOVA with Dunnett's test or t-test, read-out: Statistically significant Active Dose
Method: Examples 1, 2 and 58 were evaluated in vivo for anxiolytic effects using (1) mouse marble burying (mMB) methods similar to those described in [K. Njung'e, K. and S. L. Handley, Pharmacology, Biochemistry and Behavior, 1991, 38, 63-67] and (2) a modified Geller-Seifter conflict test described in [N. A. Moore et al. Behavioural Pharmacology. 1994, 5, 196-202].
More specifically for the mMB testing, adult, male CD1 mice (Charles River Laboratories (Kingston, N.Y.)), weighing 25 to 30 g, were used. All animals were group-housed in a standard colony room with a 12:12 light/dark cycle (lights on at 6:00 am) for at least one week prior to testing. Food and water were provided ad libitum. Animals were weighed, tail marked, and randomly assigned to treatment groups before testing.
For each test, sixty minutes after the injection of vehicle or test compound, or 30 min after injection of the positive control, buspirone, mice were individually placed into test cages containing 1.5 in of Aspen bedding (PWI brand) and two rows of 10 marbles (20 marbles per test cage total). Filter tops were used to cover each test cage. Thirty minutes later, mice were removed from test cages and returned to their home cages. The number of fully visible marbles (less than ⅔ covered with bedding) were counted and subtracted from 20 to arrive at the number of marbles buried. Twelve mice were tested per group.
Testing included multiple tests with each test performed to evaluate buspirone hydrochloride (BUS; Sigma Aldrich) (positive control) and/or a compound of the present invention. Each compound was dissolved immediately prior to testing in 20% beta-cyclodextrin (compound of the present invention) or distilled water (BUS) and administered at one or more doses (such as 3, 10, and/or 30 mg/kg) via subcutaneous (SC) or intraperitoneal (IP) injection at the indicated pretreatment times (i.e., 30, 60, or 120 min pretreatment). Doses were measured in mg drug (salt form) per kg body weight. Data was analyzed using one-way ANOVA with post-hoc Dunnett's test.

Sequence of mGluR5 (P41594 21-1212): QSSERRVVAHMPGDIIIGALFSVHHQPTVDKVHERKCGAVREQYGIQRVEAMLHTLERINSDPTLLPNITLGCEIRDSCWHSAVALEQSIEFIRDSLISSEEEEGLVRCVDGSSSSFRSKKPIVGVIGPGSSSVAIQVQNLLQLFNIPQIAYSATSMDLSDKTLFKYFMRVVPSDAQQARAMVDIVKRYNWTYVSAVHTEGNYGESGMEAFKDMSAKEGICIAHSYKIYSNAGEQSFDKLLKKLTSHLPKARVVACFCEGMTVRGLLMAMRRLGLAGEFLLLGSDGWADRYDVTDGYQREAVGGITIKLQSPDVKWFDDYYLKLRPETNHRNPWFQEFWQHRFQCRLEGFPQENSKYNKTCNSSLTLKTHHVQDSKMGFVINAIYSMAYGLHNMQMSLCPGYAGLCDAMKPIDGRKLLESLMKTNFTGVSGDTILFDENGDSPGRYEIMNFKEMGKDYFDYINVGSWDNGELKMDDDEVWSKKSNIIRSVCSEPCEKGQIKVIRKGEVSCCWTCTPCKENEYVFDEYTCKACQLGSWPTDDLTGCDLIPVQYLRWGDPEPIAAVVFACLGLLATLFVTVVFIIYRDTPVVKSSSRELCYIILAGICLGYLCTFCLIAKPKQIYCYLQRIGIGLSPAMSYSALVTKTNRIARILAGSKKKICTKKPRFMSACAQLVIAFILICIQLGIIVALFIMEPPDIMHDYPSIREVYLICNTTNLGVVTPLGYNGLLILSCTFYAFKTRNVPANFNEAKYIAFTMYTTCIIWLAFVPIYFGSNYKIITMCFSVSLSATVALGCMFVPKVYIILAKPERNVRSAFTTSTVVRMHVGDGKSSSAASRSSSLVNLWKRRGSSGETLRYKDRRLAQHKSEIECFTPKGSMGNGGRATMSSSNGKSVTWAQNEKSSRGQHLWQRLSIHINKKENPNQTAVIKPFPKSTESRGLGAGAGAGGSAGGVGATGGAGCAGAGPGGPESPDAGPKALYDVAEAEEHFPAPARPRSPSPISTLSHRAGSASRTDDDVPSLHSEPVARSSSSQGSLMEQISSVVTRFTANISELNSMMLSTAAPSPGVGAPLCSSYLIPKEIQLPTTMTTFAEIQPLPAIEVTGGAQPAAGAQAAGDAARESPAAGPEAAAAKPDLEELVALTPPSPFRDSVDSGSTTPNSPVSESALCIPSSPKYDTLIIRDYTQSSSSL
T1 sequence (P31424 21-1171 isoform P31424-2 limits assumed): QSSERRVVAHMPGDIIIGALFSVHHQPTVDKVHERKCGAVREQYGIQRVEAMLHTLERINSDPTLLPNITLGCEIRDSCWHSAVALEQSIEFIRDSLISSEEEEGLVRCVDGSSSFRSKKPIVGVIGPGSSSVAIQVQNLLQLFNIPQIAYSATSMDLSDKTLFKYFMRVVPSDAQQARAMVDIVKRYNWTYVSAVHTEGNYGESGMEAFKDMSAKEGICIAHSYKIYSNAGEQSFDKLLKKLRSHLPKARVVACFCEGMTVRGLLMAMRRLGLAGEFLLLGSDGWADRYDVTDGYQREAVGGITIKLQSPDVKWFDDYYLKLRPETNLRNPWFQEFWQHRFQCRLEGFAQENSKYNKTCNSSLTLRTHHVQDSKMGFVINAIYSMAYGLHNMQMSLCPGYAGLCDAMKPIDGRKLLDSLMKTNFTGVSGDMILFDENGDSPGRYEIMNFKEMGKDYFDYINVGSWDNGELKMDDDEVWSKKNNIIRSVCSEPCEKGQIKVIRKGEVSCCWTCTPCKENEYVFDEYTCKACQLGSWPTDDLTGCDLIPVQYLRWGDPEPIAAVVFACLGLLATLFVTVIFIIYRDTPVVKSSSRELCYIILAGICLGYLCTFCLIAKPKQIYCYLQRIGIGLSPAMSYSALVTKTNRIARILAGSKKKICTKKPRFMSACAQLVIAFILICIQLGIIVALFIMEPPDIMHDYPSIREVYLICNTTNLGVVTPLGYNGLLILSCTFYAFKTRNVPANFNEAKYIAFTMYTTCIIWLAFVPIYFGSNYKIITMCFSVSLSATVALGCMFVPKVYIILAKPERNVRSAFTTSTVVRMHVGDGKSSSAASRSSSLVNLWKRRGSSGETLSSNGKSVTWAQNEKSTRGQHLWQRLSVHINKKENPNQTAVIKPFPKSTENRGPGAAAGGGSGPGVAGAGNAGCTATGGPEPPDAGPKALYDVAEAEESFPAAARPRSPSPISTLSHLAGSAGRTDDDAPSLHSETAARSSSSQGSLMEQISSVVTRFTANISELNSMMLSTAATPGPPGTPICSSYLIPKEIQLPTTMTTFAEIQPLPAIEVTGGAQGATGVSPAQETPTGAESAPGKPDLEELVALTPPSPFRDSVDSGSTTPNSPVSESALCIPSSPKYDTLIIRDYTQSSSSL

Ki (mGluR5) | Emax [1] | Structure (SMILES) | minimal effective dose (adult, male CD1 mice)
6 to 700 nM | 63 to 99% | O=C(NC12CC3CC(C1)CC(NC(=O)c1ccccn1)(C3)C2)c1ccc2c(c1)CCN2 [Example 67, 2,3-Dihydro-1H-indole-5-carboxylic acid {3-[(pyridine-2-carbonyl)-amino]-adamantan-1-yl}-amide] | –
6 to 700 nM | 63 to 99% | Cn1ccc2cc(C(=O)NC34CC5CC(C3)CC(NC(=O)c3ccccn3)(C5)C4)ccc21 [Example 69, 1-Methyl-1H-indole-5-carboxylic acid {3-[(pyridine-2-carbonyl)-amino]-adamantan-1-yl}-amide] | –
6 to 700 nM | 63 to 99% | Cc1cccc(C(=O)NC23CC4CC(CC(NC(=O)c5ccccn5)(C4)C2)C3)n1 [Example 72, 6-Methyl-pyridine-2-carboxylic acid {3-[(pyridine-2-carbonyl)-amino]-adamantan-1-yl}-amide] | –
6 to 700 nM | 63 to 99% | O=C(NC12CC3CC(C1)CC(NC(=O)c1ccncn1)(C3)C2)c1cccc(F)c1 [Example 93, Pyrimidine-4-carboxylic acid [3-(3-fluoro-benzoylamino)-adamantan-1-yl]-amide] | 30 mg/kg
6 to 700 nM | 63 to 99% | O=C(NC12CC3CC(C1)CC(NC(=O)c1nccs1)(C3)C2)c1ccccn1 [Example 74, Pyridine-2-carboxylic acid {3-[(thiazole-2-carbonyl)-amino]-adamantan-1-yl}-amide] | –
– | 63 to 99% | Cc1cnc(C(=O)NC23CC4CC(CC(NC(=O)c5ccccn5)(C4)C2)C3)cn1 [Example 63, 5-Methyl-pyrazine-2-carboxylic acid {3-[(pyridine-2-carbonyl)-amino]-adamantan-1-yl}-amide] | 30 mg/kg
6 to 700 nM | 70 to 99% | O=C(NC12CC3CC(C1)CC(NC(=O)c1cnccn1)(C3)C2)c1ccccn1 [Example 105, Pyrazine-2-carboxylic acid {3-[(pyridine-2-carbonyl)-amino]-adamantan-1-yl}-amide] | 30 mg/kg
6 to 700 nM | 70 to 99% | Cc1cccc(C(=O)NC23CC4CC(CC(NC(=O)c5cscn5)(C4)C2)C3)n1 [Example 120, 6-Methyl-pyridine-2-carboxylic acid {3-[(thiazole-4-carbonyl)-amino]-adamantan-1-yl}-amide] | –

The next lines start with the compound.

Structure (SMILES) | Ki (mGluR5) | Emax [1] | minimal effective dose (adult, male CD1 mice)
Cn1nc2ccccc2c1C(=O)NC12CC3CC(CC(NC(=O)c4ccccn4)(C3)C1)C2 [Example 79, 2-Methyl-2H-indazole-3-carboxylic acid {3-[(pyridine-2-carbonyl)-amino]-adamantan-1-yl}-amide] | 6 to 700 nM | – | –
Cc1cncc(C(=O)NC23CC4CC(CC(NC(=O)c5ccc(F)cn5)(C4)C2)C3)n1 [Example 179, 6-Methyl-pyrazine-2-carboxylic acid {3-[(5-fluoro-pyridine-2-carbonyl)-amino]-adamantan-1-yl}-amide] | – | – | 10 mg/kg
O=C(NC12CC3CC(C1)CC(NC(=O)c1cnccn1)(C3)C2)c1ccc(F)cn1 [Example 185, Pyrazine-2-carboxylic acid {3-[(5-fluoro-pyridine-2-carbonyl)-amino]-adamantan-1-yl}-amide] | – | 63 to 99% | 30 mg/kg
Cc1nccc(C(=O)NC23CC4CC(CC(NC(=O)c5ccccn5)(C4)C2)C3)n1 [Example 107, 2-Methyl-pyrimidine-4-carboxylic acid {3-[(pyridine-2-carbonyl)-amino]-adamantan-1-yl}-amide] | 6 to 700 nM | 70 to 99% | 10 mg/kg
Cc1cccc(C(=O)NC23CC4CC(CC(NC(=O)c5cccc(-c6ncccn6)c5)(C4)C2)C3)n1 [Example 44, 6-Methyl-pyridine-2-carboxylic acid [3-(3-pyrimidin-2-yl-benzoylamino)-adamantan-1-yl]-amide] | 6 to 700 nM | 63 to 99% | –
Cc1cncc(C(=O)NC23CC4CC(CC(NC(=O)c5cccc(F)c5)(C4)C2)C3)n1 [Example 96, 6-Methyl-pyrazine-2-carboxylic acid [3-(3-fluoro-benzoylamino)-adamantan-1-yl]-amide] | 6 to 700 nM | 63 to 99% | –
Cc1nccc(C(=O)NC23CC4CC(CC(NC(=O)c5cccc(F)c5)(C4)C2)C3)n1 [Example 183, 2-Methyl-pyrimidine-4-carboxylic acid [3-(3-fluoro-benzoylamino)-adamantan-1-yl]-amide] | – | – | 10 mg/kg
Cn1ccc(C(=O)NC23CC4CC(C2)CC(NC(=O)c2nccs2)(C4)C3)n1 [Example 19, Thiazole-2-carboxylic acid {3-[(1-methyl-1H-pyrazole-3-carbonyl)-amino]-adamantan-1-yl}-amide] | 6 to 700 nM | 63 to 99% | –
Cc1cncc(C(=O)NC23CC4CC(C2)CC(NC(=O)c2cncc(C)n2)(C4)C3)n1 [Example 145, N,N′-(1,3-adamantylene)bis(6-methyl-pyrazine-2-carboxamide)] | – | 70 to 99% | 30 mg/kg
O=C(NC12CC3CC(C1)CC(NC(=O)c1cnccn1)(C3)C2)c1cccc(F)c1 [Example 95, Pyrazine-2-carboxylic acid [3-(3-fluoro-benzoylamino)-adamantan-1-yl]-amide] | 6 to 700 nM | 63 to 99% | –
Cc1cccc(C(=O)NC23CC4CC(C2)CC(NC(=O)c2ccnc(C)n2)(C4)C3)n1 [Example 119, 2-Methyl-pyrimidine-4-carboxylic acid {3-[(6-methyl-pyridine-2-carbonyl)-amino]-adamantan-1-yl}-amide] | 6 to 700 nM | 70 to 99% | 10 mg/kg
Cc1nc2ccc(C(=O)NC34CC5CC(C3)CC(NC(=O)c3ccccn3)(C5)C4)cc2o1 [Example 65, 2-Methyl-benzoxazole-6-carboxylic acid {3-[(pyridine-2-carbonyl)-amino]-adamantan-1-yl}-amide] | 6 to 700 nM | 63 to 99% | –
